Results taken from patent publication US9700596B2, “Locally released growth factors to mediate motor recovery after stroke” (The Regents of the University of California, priority 2011, dated 2017).
Entries after “also recorded” stand apart in the source; their conditions may differ.

B1: brain derived neurotrophic factor (protein)
chain: HSDPARRGELSVCDSISEWVTAADKKTAVDMSGGTVTVLEKVPVSKGQLKQYFYETKCNPMGYTKEGCRGIDKRHWNSQCRTTQSYVRALTMDSKKRIGWRFIRIDTSCVCTLTIKRGR
notes: growth factor, delivered through HYSTEM-C from 7 days after stroke

Assays:
[1] = system: focal stroke in forelimb motor cortex; assay: Grid-walking task (footfaults) after photothrombotic focal stroke; format: in vivo, mouse; conditions: for number of forelimb footfaults / function of impaired forelimb, grid-walking: i.p. twice daily from 5 d after stroke for 6 weeks, CX1837 0.33 or 1 mg/kg, CX1739 3 or 30 mg/kg, CFM2 50 μmol/kg, vs stroke plus vehicle
Protocol: (§1) Focal stroke was induced by photothrombosis in adult male C57BL/6 mice weighing 20-25 g as previously described (Clarkson et al. (2010) Nature 468: 305-309).
(§2) CX1837 (0.33 and 1 mg/kg) and CX1739 (3 and 30 mg/kg) were dissolved in 30% hydroxypropyl_β-cyclodextran (HPCD) (made 1:1 in 0.9% saline and distilled H2O) and administered intraperitoneally twice daily starting 5 d after stroke for a period of 6 weeks. The AMPAR antagonist CFM2 ([…]) (De Sarro et al. (1999) Eur. J. Pharmacol., 368: 149-159) was administered intraperitoneally twice daily for 6 weeks.
A hyaluronan/heparin sulfate proteoglycan biopolymer hydrogel (Extracel-HP, a.k.a., HYSTEM®-HP; BioTime,) was used to locally deliver TrkB-Fc (5 μg/ml) and human IgG-Fc (antibody and vehicle control) to the periinfarct cortex (Li et al. (2010) Nat. Neurosci. 13: 1496-1504). This hydrogel was chosen because it is composed of naturally occurring brain extracellular matrix constituents; remains liquid for a period after mixing so that it can be injected into the brain through a small, minimally invasive needle; and will gel within the stroke cavity, conforming to the boundaries of this cavity. We have shown that this hydrogel releases small and large proteins for up to 4 weeks from the infarct cavity after stroke. Five days after stroke, 10 μl of Extracel-HP (HYSTEM®-HP), impregnated with TrkB-Fc (5 μg/ml) or human IgG-Fc (vehicle), was injected directly into the stroke infarct cavity using a 30 gauge needle attached to a Hamilton syringe. Extracel-HP was prepared according to the manufacturer's instructions. […]
(§3) Animals were tested once on both the grid-walking and cylinder tasks, 1 week before surgery to establish baseline performance levels. For the reaching task, mice were trained for a period of 14 d and subsequently tested on day 15 to establish a baseline reading. […] Behaviors were scored by observers who were blind to the treatment group of the animals in the study as previously described (Clarkson et al. (2010) Nature 468: 305-309). […]

BDNF = BDNF ELISA of cortical tissue 7 d after stroke; format: in vivo, mouse; conditions: treatment from day 5, CX1837 1 mg/kg, CX1739 3 mg/kg, vs stroke plus vehicle
Protocol: (§4) Tissue was collected from around the stroke site from stroke plus vehicle, stroke plus CX1837 (1 mg/kg), and stroke plus CX1739 (3 mg/kg), and control groups 7 d after stroke. Cortical tissue was dissected in a 1 mm radius around the stroke infarct core, including the core itself, and flash frozen on dry ice.
Equal volumes of tissue were homogenized in […] of homogenization buffer [Complete Protease Inhibitor Tablet (Invitrogen), 1 mM phenylmethylsulfonylfluoride, 50 mM Tris-HCl, 5 mM EDTA, 10 mM EGTA, 1% Triton X-100] for ˜1 min. Tissue and homogenization buffer were incubated on ice for 30 min, followed by a 5 min spin at 14,000 rpm. The supernatant was collected and total protein concentrations were determined using the DC Protein Assay (Bio-Rad). BDNF was measured using the BDNF ELISA Emax Immunoassay System (Promega) as per the manufacturer's instructions. BDNF levels were determined relative to a standard curve constructed from measures of kit-supplied BDNF protein standards (0-500 pg of BDNF protein) that were assayed simultaneously with the experimental samples. BDNF levels are expressed as picograms of BDNF per 100 μg of sample protein.

[2] = system: hilar EPSPs (dentate gyrus of the hippocampus)
Protocol: Male Long-Evans rats (250-350 g) were anesthetized by pentobarbital (60 mg/kg, i.p.) and maintained under anesthesia by pentobarbital infusion (2-4 mg·kg-^1·h^−1). Under anesthesia, animals were placed in a stereotaxic frame and small holes were drilled into the skull of the left hemisphere to allow the positioning of a stimulating electrode (−7.8 to −8.1 AP; 4.2 to 4.4 ML) and a recording electrode (−3.0 to −3.3 AP; 1.6 to 2.2 ML). A monopolar stainless-steel stimulating electrode (175 μm, insulated with Formvar) was lowered into the perforant path together with a platinum/iridium recording electrode (75 μm) into the hilus of the dentate gyms of the hippocampus. The current used to elicit an evoked potential was adjusted to produce a response size 50-60% of the maximal spike-free amplitude. Evoked hilar EPSPs were recorded in response to single-pulse stimulation delivered at a frequency of one pulse per 20 s.
Data acquisition and analysis was performed using commercially available software (NAC and NACSHOW).

TrkB = assay: TrkB/p-Trk immunoblotting of cortical tissue 7 d after stroke; format: in vivo, mouse; conditions: CX1837 1 mg/kg, CX1739 3 mg/kg, vs stroke plus vehicle
Protocol: as §4
For immunoblotting experiments, protein (10 μg) was loaded onto a 12% SDS-polyacrylamide gel, subjected to electrophoresis, and transferred to a pure nitrocellulose membrane (GE Healthcare). The membrane was blocked in 10% nonfat milk and probed with polyclonal antibodies specific for anti-TrkB (1:1000; Santa Cruz Biotechnology) and anti-p-Trk (1:5000; Santa Cruz Biotechnology). The blots were incubated with peroxidase-labeled anti-rabbit IgG (1:2000; Vector Laboratories) and immunoreactive proteins were visualized using enhanced chemiluminescence (GE Healthcare). β-Actin was used as a loading control (1:5000; Abcam). Optical density (OD) was determined using the NIH ImageJ software. Pixel intensities were converted to OD using the calibration curve of the software, and background-subtracted values were expressed as OD/[…] total protein.

[3] = system: focal stroke in forelimb motor cortex; assay: Spontaneous-forelimb (cylinder) task after photothrombotic focal stroke; format: in vivo, mouse; conditions: i.p. twice daily from 5 d after stroke for 6 weeks; CX1837 0.33 or 1 mg/kg, CX1739 3 or 30 mg/kg; vs stroke plus vehicle
Protocol: as §1, §2
A hyaluronan/heparin sulfate proteoglycan biopolymer hydrogel (Extracel-HP, a.k.a., HYSTEM®-HP; BioTime,) was used to locally deliver TrkB-Fc (5 μg/ml) and human IgG-Fc (antibody and vehicle control) to the periinfarct cortex (Li et al. (2010) Nat. Neurosci. 13: 1496-1504). […]
as §3

[4] = system: focal stroke in forelimb motor cortex; assay: Single-pellet skilled-reaching task after stroke; format: in vivo, mouse; conditions: CFM2 50 μmol/kg i.p. bid from 5 d after stroke
Protocol: For loss-of-function studies assessing CFM2, the single-pellet skilled-reaching task was used (Conner et al. (2005) Neuron 46: 173-179). Before stroke, animals were trained for […] to successfully reach and retrieve 20 mg sugar pellets (Bio-Serv). A three lane Plexiglas reaching apparatus (30 cm deep, 10 cm wide, and 30 cm high for each lane) was constructed to allow simultaneous recording of three animals. Each lane consists of two 5 mm slots situated against the front-right and front-left walls of the chamber to force the mouse the reach for the pellets using either their right or left forepaws. A 5-mm-thick plastic shelf was mounted 15 mm from the floor at the front of the box.
During the training period, mice were fasted to 90% of their body weight and maintained at this level for the full 3 week training period. […]
All mice were fasted the night before testing. Pellets were presented one at a time and reaches were recorded with a Canon VIXIA HV30 video recorder. […] If an animal reached through the slot and obtained/grasped a food pellet and brought the pellet back through the slot, the reach was scored as a success. If an animal knocked the pellet away or dropped the pellet after grasping it, the reach was scored as a miss. The performance of each mouse was scored as follows: percentage success[…](number of successful retrievals/15)*100.

[5] = CFM2 50 μmol/kg i.p. bid; cited from earlier work

| Molecule | number of forelimb footfaults / function of impaired forelimb, grid-walking [1] | BDNF levels in periinfarct cortex (BDNF) | excitability ceiling of the EPSP amplitude effect (dose) ([2]; i.p., anesthetized rats) | crossing of the blood-brain barrier when given systemically ([2]; rat, in vivo, ip) | TrkB phosphorylation in periinfarct cortex (TrkB) | forelimb asymmetry (left/right ratio), cylinder task [3] | successful pellet retrieval with impaired right forelimb [4] | general behavioral side effects (reduced motor activity, impaired grooming, weight loss) [5] | forelimb footfaults / functional recovery with hydrogel-delivered BDNF ([1]; injected 7 days after stroke, 4 weeks after injection, 5 weeks after stroke) |
| --- | --- | --- | --- | --- | --- | --- | --- | --- | --- |
| CN(C(=O)c1ccc2nonc2c1)C1CCOCC1 [CX1739] | small decrease in the number of footfaults; also recorded: small yet non-significant decrease in the number of footfaults | did not change the level of BDNF expression | 10 mg/kg | cross the blood-brain barrier | did not change the level of TrkB phosphorylation | small increase in the use of the right-impaired forelimb; also recorded: did not result in a decrease in the left/ratio | – | – | – |
| COc1cc2c(cc1OC)C(c1ccc(N)cc1)=NNC(=O)C2 [CFM2] | significant impairment in the normal gain of motor function; also recorded: significant increase in the number of footfaults | – | – | – | – | – | significant impairment in the ability to retrieve pellets successfully out to 2 weeks after stroke; also recorded: decrease in the number of pellets successfully retrieved | did not produce general behavioral side effects | – |
| B1 | – | – | – | – | – | – | – | – | significant improvements in functional recovery |
